# According to a melting point compilation (Tetko et al.; mined from patent text by program, amines drawn as free bases though some values may be those of a salt):
row,melting point [°C],Compound
1,158,O=C1c2nccc(-c3ccccc3NC(=O)C(F)(F)F)c2C(=O)c2c([N+](=O)[O-])ccnc21
2,160 to 163,CCOC(=O)C1(O)CC(c2ccncc2)=NNC1=O (stereo not given)
3,125,CCOC1=N[C@@H](C(C)C)C(=O)N[C@]1(C)Cc1ccccc1
4,107,Cc1c(C(F)(F)F)cnn(-c2cc(OCC=O)c(Cl)cc2F)c1=O
5,48 to 50,CC(C)=Cc1ccc(/C=C/CCl)cc1
6,273 to 275,O=C(O)c1cccc(-n2ncc3c2CCc2ccccc2-3)c1
7,148 to 150,CN(CCN1CCN(c2ccc(C(F)(F)F)cc2)CC1)C[C@@]1(C)Cn2cc([N+](=O)[O-])nc2O1
8,126 to 127,COc1ccc(C(=O)c2noc(CC(=O)O)n2)cc1
9,214,Cc1ccc2c(c1)c(N1CCN(C(=O)c3cccs3)CC1)c(C#N)c(=O)n2C
10,196,COC(=O)N1CCC(n2c(=O)[nH]c3cc(Cl)ccc32)C(C)C1 (stereo not given)
11,121 to 122,COC1(c2cccc(OCc3ccc(-n4ccnc4C)cc3F)c2)CCOCC1
12,172 to 173,COc1ccc(Br)c2c1CN(Nc1ccncc1)CC2
13,215,O=c1[nH]c2ccc(S(=O)(=O)Nc3ccc(Cl)cc3Cl)cc2c(=O)o1
14,174,C=CCn1cc(-c2ccccc2)c(=O)c(-c2ccccc2)c1
15,109,O=C(C=NO)c1cccc(Cl)c1Cl
16,183 to 184,CC(C)(C)OC(=O)Nc1ccccc1NC(=O)c1ccc(C#N)nc1
17,179 to 184,O=C1N(C2CCCCC2)CC(CN2CCC(O)(c3ccccc3)CC2)C1(c1ccccc1)c1ccccc1 (stereo not given)
18,245,NC(=O)c1c(Br)cc(Br)c(CC(=O)O)c1Br
19,134,C#CCN(c1ccc(C(=O)OC(C)(C)C)cc1)C1CCc2cc3nc(COC(=O)C(C)(C)C)[nH]c(=O)c3cc21 (racemic)
20,82 to 86,Oc1ccc(O)c(-c2ccc(Cl)cc2Cl)c1
21,112 to 116,Clc1ccc(Nc2ccc(Br)cn2)cc1
22,159 to 161,C=CCN(CC=C)c1nc(NC(=O)Cc2ccsc2)n2oc(=O)nc2n1
23,194 to 196,CC(=O)NC[C@H]1CN(c2ccc(C(=O)c3cnc4ccc(Cl)nn34)cc2)C(=O)O1
24,45 to 72,CCCC1CCC(O)(c2ccc(-c3ccccc3)c(F)c2)CC1 (stereo not given)
25,128 to 130,CCS(=O)CCn1nc(-c2cccc(Cl)c2Cl)c(=O)c2cccc(OC)c21 (stereo not given)

row,melting point [°C],Compound
1,230,O=c1c(Cc2ccncc2)cc2cccnc2n1-c1cccc([N+](=O)[O-])c1
2,117 to 120,O=C1c2ccccc2CN1C1CCN(c2ccc(C(OCCCc3ccccc3)c3ccccc3)cc2)CC1 (stereo not given)
3,225,CN1CCC(C2(O)c3ccccc3CCn3cc(-c4ccccc4)nc32)CC1 (stereo not given)
4,115 to 117,N=C(Nc1ccc2[nH]cc(C3CCN(C(=N)c4cccs4)CC3)c2c1)c1cccs1
5,126 to 128,Cc1ccc2c(NCc3ccc(NC(=O)C4CCN(Cc5ccc(C(F)(F)F)cc5)CC4)cc3)nc(N(C)C)nc2c1
6,56 to 57.5,CCc1cccc(C)c1NCN1CCOC1=O
7,94.3,COC(=O)/C=C/c1ccc(N(C)C(C)=O)nc1
8,110 to 111,CCCCOC(=O)c1ccc(Cl)nn1
9,58 to 60,Cc1ncccc1NC(=NC#N)NC(NC(=O)Cc1ccc(F)c(F)c1)C(C)(C)C (stereo not given)
10,123 to 125,Cc1ccccc1CC1=NNC(=O)CC1
11,145 to 147,CCCOc1ccc(S(=O)(=O)N2CCC(C(=O)OCC)CC2)cc1-c1nc2cc3nc[nH]c3cc2c(=O)[nH]1
12,80 to 85,CC(C)(C)OC(=O)NCC1CCn2c(cc3ccccc32)C1 (stereo not given)
13,170 to 172,c1ccc(-c2nc3ccc(NCCCN4CCC(OC(c5ccccc5)c5ccccc5)CC4)nn3n2)cc1
14,214 to 215,CN1CCN(c2ncnc3oc(-c4ccc(N)cc4)c(-c4ccc(F)cc4)c23)CC1
15,205 to 208,Cn1cc(C(=O)NCc2ccc(Cl)cc2)c(=O)c2cc(I)ccc21
16,179 to 180,CSc1ccc2c(c1)NC(=O)C2
17,172 to 173,Nc1cccc(C#Cc2c(F)c(F)nc(F)c2F)c1
18,180 to 183,COCCOc1cc2ncnc(Nc3ccc(C)c(OC(C)=O)c3)c2cc1OC
19,153 to 154,CCOC(=O)C=C(C)C=CC=C(C)C=Cc1c(C)c(CC)c(OC)c(CC)c1C
20,244 to 248,CCOC(=O)c1cn(-c2cc(OC)c(F)cc2[N+](=O)[O-])c2c(Cl)c(F)c(F)cc2c1=O
21,128 to 130,Cc1ccc(N)c(C(=O)NCCC(C)n2ccnc2)c1 (stereo not given)
22,133 to 134,CCOC(=O)C1=C(C)NC(C)=C(C(=O)c2ccco2)C1c1ccccc1[N+](=O)[O-] (stereo not given)
23,110 to 112,CCn1c(=O)oc(=O)c2ccccc21
24,95 to 98,CN(C)C1CCCCC1Oc1ccc(Cc2c(-c3ccc(OCCN4CCCC4)cc3)sc3cc(O)ccc23)cc1 (stereo not given)
25,143 to 145,COc1ccc2c(c1)C(N=Cc1cc(OC)c(OC)cc1[N+](=O)[O-])CCO2 (stereo not given)

row,melting point [°C],Compound
1,319 to 322,NC(=O)CCn1c2ccc(O)cc2c2c3c(c(-c4ccccc4Cl)cc21)C(=O)NC3=O
2,220,NC1=Nc2ccc(Br)cc2C2CCCC12F (stereo not given)
3,66 to 68,CCOc1c(NCCP(=O)(OCC)OCC)c(=O)c1=O
4,186 to 188,COC(=O)c1cn2c(-c3ccc(-c4ccccc4)cc3)csc2n1
5,92 to 95,COC(=O)CS(=O)(=O)N1CC=C(c2ccc(-c3ccccc3)c(OC)c2)CC1
6,146 to 150,COc1nc(N)nc(SC(F)F)n1
7,101 to 104,Cc1ccc(Oc2ccc(C)cc2CC(=O)O)cc1
8,169 to 170,OC1c2ccccc2CSc2ccc(Br)cc21 (stereo not given)
9,238 to 240,O=S(=O)(c1ccc(Cl)cc1)N1CCC[C@@H](Nc2nccc(-c3c(-c4cccc(C=NO)c4)nc4sccn34)n2)C1
10,209 to 211,CCNc1nc2ccccc2n2c(C(C)C)nnc12
11,138 to 139,CC(=NOCCOc1ccc(CC2SC(=O)NC2=O)cc1)c1ccc2ccccc2c1 (stereo not given)
12,231 to 234,O=C(NCCc1ccc(Cl)cc1)c1c(Cl)ccc2nc(N3CCC(C(=O)O)CC3)ccc12
13,113 to 114,CCOC(=O)Cn1c(-c2ccc3c(c2)OCCO3)nc2ccccc21
14,213 to 216,Cc1cccc(-n2ncc(-c3ccc(S(C)(=O)=O)cc3)c(-c3ccc(F)cc3)c2=O)c1
15,61 to 63,CC1CCc2ccc3ccccc3c2C1=O (stereo not given)
16,161 to 162,CCOc1cc(-n2c(=O)cc(C(F)(F)F)[nH]c2=O)c(F)cc1Br
17,167 to 169,O=C(O)CN1CC2(CCCCC2)N(c2ccccc2)CC1=O
18,178 to 180,O=C(O)CC1(S)C2CC3CC(C2)CC1C3 (stereo not given)
19,96.3 to 98.5,O=C1CC[C@H](c2ccc(NC(=O)OCc3ccccc3)cc2)C1
20,201 to 203,c1ccc(N2CCN(CCc3nc4ccccc4[nH]3)CC2)cc1
21,174 to 175,C#Cc1ccc(-c2c(C)nnc(Cl)c2-c2c(F)cc(F)cc2F)cc1
22,276 to 278,C=Cc1cc(O)cc2nc(-c3ccc(O)c(F)c3F)oc12
23,147 to 150,COc1ccc2cc(C3=CCC4(CC3)CCN(C)CC4)ccc2c1
24,112 to 114,O=C(CCCCCNC(=O)[C@H](Cc1c[nH]c2ccccc12)NC(=O)Cc1ccc2ccccc2c1)NO
25,147 to 152,CC12CCC(C(=O)Nc3ccc(CC#N)cc3)(OC1=O)C2(C)C (stereo not given)

row,melting point [°C],Compound
1,133 to 137,c1cnc2c(c1)-c1ncccc1C2(Cc1ccncc1)Cc1ccncc1
2,74 to 75,Oc1cccc(CCCn2ccnn2)c1
3,284 to 289,N#Cc1ccc(-c2cc3ccccc3[nH]c2=S)cc1
4,210,COc1cc2ncnc(N3CCc4ccc(Cl)cc43)c2cc1SC
5,190 to 191,Cc1cnc(C2=NC(C)(C(C)C)C(=O)N2)c(C(O)(c2cccs2)c2cccs2)c1 (stereo not given)
6,105 to 106,CCOC(=O)c1cc2c(nc1C)CCCC2
7,190 to 192,COCCOC(=O)C1=C(C)NC(C)=C(c2nnco2)C1c1cccc(Cl)c1Cl (stereo not given)
8,154 to 155,CCOC(=O)C1=C(CC)NC(CC)=C(C(=O)OCC)C1c1ccccc1/C=C/C(=O)OC(C)(C)C
9,205 to 206,CCCc1nc2c(N)nc3cc(OCc4ccccc4OC)ccc3c2n1CC(C)C
10,223 to 225,COc1ccc2c(c1)c1c3c(c(-c4ccccc4OC)cc1n2CCCO)C(=O)NC3=O
11,48,CC(C)(C)c1ccc(CN2CCN(c3ccccc3)CC2)o1
12,167 to 168,Cc1ccc(C2=C(c3ccc(S(C)(=O)=O)cc3)OC(C)(C)C2=O)cc1
13,174 to 176,O=[N+]([O-])c1ccc2c(c1)N[C@@H]1c3cc([N+](=O)[O-])ccc3C[C@H]21 (relative stereo)
14,151 to 152,CCC(CC)Nc1nc(C)nc(Nc2c(C)cc(C)nc2C)c1[N+](=O)[O-]
15,174 to 175,COc1ccc2c(c1)c1c(n2Cc2ccccc2)CCCC1=O
16,195 to 196,CNc1nc(-c2ccc(F)cc2)c(I)c(C(C)C)n1
17,197 to 200,CCCCc1nc2c(N)nc3ccccc3c2n1CCCCNS(=O)(=O)Cc1ccccc1
18,288,COc1ccc(-c2[nH]nc3c2C(=O)c2c(NC(=O)C(C)C)cccc2-3)cc1
19,145 to 146,Cc1c(C)c2c(c(C)c1O)CCC(C)(C(=O)NN(C)C)O2 (stereo not given)
20,53 to 54,O=c1c(Cc2ccccc2)c2n(c(=O)n1CCCCSc1cccc3nccn13)CCCS2(=O)=O
21,103 to 105,O=C(COc1ccc(Cl)cc1Cl)C(=C1SCCCN1Cl)[N+](=O)[O-]
22,225 to 227,Cc1oc2c(C)c(C)c(NC(=O)c3ccccc3)c(C)c2c1-c1ccc(C(C)C)cc1
23,212 to 215,CC1(C)CC(=O)C(C(=O)Nc2ccc(Cl)c(Cl)c2)C(=O)O1 (stereo not given)

row,Compound,melting point [°C]
1,COc1cccc(CBr)c1CBr,78 to 79
2,COc1cc2c(cc1Br)CC(C)N(C(=O)C1CC1)N=C2c1ccc([N+](=O)[O-])cc1 (stereo not given),194 to 196
